In PubChem BioAssay (NCI):
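Briefly, cells in 96-well plates were exposed to five compound concentrations for 48 h, and endpoints were estimated by linear interpolation. The concentration for 50% growth inhibition is given as GI50. At the TGI there is no net growth.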

What was measured:
Experiment in all cases: NCI tumour cell line growth inhibition, 48 h; in the data active means GI50 below about 0.43 µM; inactive means the rest
786-0 renal = system: 786-0 renal
A498 renal = system: A498 renal
A549 NSCLC = system: A549 NSCLC
ACHN renal = system: ACHN renal
BT-549 breast = system: BT-549 breast
CAKI-1 renal = system: CAKI-1 renal
CCRF-CEM leukemia = system: CCRF-CEM leukemia
COLO 205 colon = system: COLO 205 colon
DU-145 prostate = system: DU-145 prostate
EKVX NSCLC = system: EKVX NSCLC
HCC-2998 colon = system: HCC-2998 colon
HCT-116 colon = system: HCT-116 colon
HCT-15 colon = system: HCT-15 colon
HL-60(TB) leukemia = system: HL-60(TB) leukemia
HOP-62 NSCLC = system: HOP-62 NSCLC
HS 578T breast = system: HS 578T breast
HT29 colon = system: HT29 colon
IGROV1 ovarian = system: IGROV1 ovarian
K-562 leukemia = system: K-562 leukemia
KM12 colon = system: KM12 colon
LOX IMVI melanoma = system: LOX IMVI melanoma
M14 melanoma = system: M14 melanoma
MALME-3M melanoma = system: MALME-3M melanoma
MCF7 breast = system: MCF7 breast
MDA-MB-231 breast = system: MDA-MB-231 breast
MDA-MB-435 = system: MDA-MB-435
MOLT-4 leukemia = system: MOLT-4 leukemia
NCI-H226 lung = system: NCI-H226 lung
NCI-H23 lung = system: NCI-H23 lung
NCI-H460 lung = system: NCI-H460 lung
NCI-H522 lung = system: NCI-H522 lung
NCI/ADR-RES ovarian = system: NCI/ADR-RES ovarian
OVCAR-3 ovarian = system: OVCAR-3 ovarian
OVCAR-4 ovarian = system: OVCAR-4 ovarian
OVCAR-5 ovarian = system: OVCAR-5 ovarian
OVCAR-8 ovarian = system: OVCAR-8 ovarian
PC-3 prostate = system: PC-3 prostate
RPMI-8226 leukemia = system: RPMI-8226 leukemia
RXF 393 renal = system: RXF 393 renal
SF-268 CNS = system: SF-268 CNS
SF-295 CNS = system: SF-295 CNS
SF-539 CNS = system: SF-539 CNS
SK-MEL-2 melanoma = system: SK-MEL-2 melanoma
SK-MEL-28 melanoma = system: SK-MEL-28 melanoma
SK-MEL-5 melanoma = system: SK-MEL-5 melanoma
SK-OV-3 ovarian = system: SK-OV-3 ovarian
SN12C renal = system: SN12C renal
SNB-19 CNS = system: SNB-19 CNS
SNB-75 CNS = system: SNB-75 CNS
SR leukemia = system: SR leukemia
SW-620 colon = system: SW-620 colon
T-47D breast = system: T-47D breast
TK-10 renal = system: TK-10 renal
U251 CNS = system: U251 CNS
UACC-257 melanoma = system: UACC-257 melanoma
UACC-62 melanoma = system: UACC-62 melanoma
UO-31 renal = system: UO-31 renal

Nc1nc(=S)c2ncn(C3OC(COP(=O)(O)O)C(O)C3O)c2[nH]1 (centres undefined)
5.09 µM: TGI (SK-OV-3 ovarian)
32.8 µM: TGI (M14 melanoma)
active: GI50 (CCRF-CEM leukemia) 0.406 µM | GI50 (LOX IMVI melanoma) 0.322 µM | GI50 (MCF7 breast) 0.397 µM | GI50 (MOLT-4 leukemia) 0.354 µM | GI50 (SF-295 CNS) 0.378 µM | GI50 (SR leukemia) 0.268 µM
6.14 µM: TGI (UACC-62 melanoma)
75 µM: TGI (MALME-3M melanoma)
12.7 µM: TGI (HOP-62 NSCLC)
11.7 µM: TGI (SK-MEL-5 melanoma)
9.24 µM: TGI (A498 renal)
14.2 µM: TGI (LOX IMVI melanoma)
9.75 µM: TGI (RXF 393 renal)
9.52 µM: TGI (NCI-H522 lung)
inactive: GI50 (786-0 renal) 2.53 µM | GI50 (A498 renal) 0.631 µM | GI50 (A549 NSCLC) 4.69 µM | GI50 (ACHN renal) 1.99 µM | GI50 (BT-549 breast) 2.38 µM | GI50 (CAKI-1 renal) 0.544 µM | GI50 (COLO 205 colon) 2.66 µM | GI50 (DU-145 prostate) 0.577 µM | GI50 (EKVX NSCLC) 2.34 µM | GI50 (HCC-2998 colon) 3.29 µM | GI50 (HCT-116 colon) 0.5 µM | GI50 (HCT-15 colon) 1.72 µM | GI50 (HL-60(TB) leukemia) 2.37 µM | GI50 (HOP-62 NSCLC) 0.447 µM | GI50 (HS 578T breast) 6.36 µM | GI50 (HT29 colon) 1.2 µM | GI50 (IGROV1 ovarian) 5.23 µM | GI50 (K-562 leukemia) 0.965 µM | GI50 (KM12 colon) 3.02 µM | GI50 (M14 melanoma) 0.503 µM | GI50 (MALME-3M melanoma) 1.81 µM | GI50 (MDA-MB-231 breast) 0.717 µM | GI50 (MDA-MB-435) 2.48 µM | GI50 (NCI-H226 lung) 9.9 µM | GI50 (NCI-H23 lung) 1.93 µM | GI50 (NCI-H460 lung) 0.562 µM | GI50 (NCI-H522 lung) 2.11 µM | GI50 (NCI/ADR-RES ovarian) 0.491 µM | GI50 (OVCAR-3 ovarian) 3.2 µM | GI50 (OVCAR-4 ovarian) 2.19 µM | GI50 (OVCAR-5 ovarian) 0.752 µM | GI50 (OVCAR-8 ovarian) 0.715 µM | GI50 (PC-3 prostate) 3.44 µM | GI50 (RPMI-8226 leukemia) 0.451 µM | GI50 (RXF 393 renal) 1.43 µM | GI50 (SF-268 CNS) 2.11 µM | GI50 (SF-539 CNS) 2.32 µM | GI50 (SK-MEL-2 melanoma) 3.89 µM | GI50 (SK-MEL-28 melanoma) 6.57 µM | GI50 (SK-MEL-5 melanoma) 3.25 µM | GI50 (SK-OV-3 ovarian) 0.471 µM | GI50 (SN12C renal) 3.66 µM | GI50 (SNB-19 CNS) > 100 µM | GI50 (SNB-75 CNS) 0.96 µM | GI50 (SW-620 colon) 3.59 µM | GI50 (T-47D breast) 0.541 µM | GI50 (TK-10 renal) 1.89 µM | GI50 (U251 CNS) 8.08 µM | GI50 (UACC-257 melanoma) 4.57 µM | GI50 (UACC-62 melanoma) 0.539 µM | GI50 (UO-31 renal) 1.98 µM
10.9 µM: TGI (NCI-H460 lung)
9.04 µM: TGI (COLO 205 colon)
> 100 µM: TGI (786-0 renal) | TGI (A549 NSCLC) | TGI (ACHN renal) | TGI (BT-549 breast) | TGI (CAKI-1 renal) | TGI (CCRF-CEM leukemia) | TGI (DU-145 prostate) | TGI (EKVX NSCLC) | TGI (HCC-2998 colon) | TGI (HCT-116 colon) | TGI (HCT-15 colon) | TGI (HL-60(TB) leukemia) | TGI (HS 578T breast) | TGI (HT29 colon) | TGI (IGROV1 ovarian) | TGI (K-562 leukemia) | TGI (KM12 colon) | TGI (MCF7 breast) | TGI (MDA-MB-231 breast) | TGI (MDA-MB-435) | TGI (MOLT-4 leukemia) | TGI (NCI-H226 lung) | TGI (NCI-H23 lung) | TGI (NCI/ADR-RES ovarian) | TGI (OVCAR-3 ovarian) | TGI (OVCAR-4 ovarian) | TGI (OVCAR-5 ovarian) | TGI (OVCAR-8 ovarian) | TGI (PC-3 prostate) | TGI (RPMI-8226 leukemia) | TGI (SF-268 CNS) | TGI (SF-295 CNS) | TGI (SF-539 CNS) | TGI (SK-MEL-2 melanoma) | TGI (SK-MEL-28 melanoma) | TGI (SN12C renal) | TGI (SNB-19 CNS) | TGI (SNB-75 CNS) | TGI (SR leukemia) | TGI (SW-620 colon) | TGI (T-47D breast) | TGI (TK-10 renal) | TGI (U251 CNS) | TGI (UACC-257 melanoma) | TGI (UO-31 renal)
